Source: US20100047839A1, “LATENT FLUORIMETRIC INDICATOR FOR BIOLOGICAL ANALYTES DETERMINATION AND THE PREPARATION METHOD THEREOF” (NATIONAL TAIPEI UNIVERSITY OF TECHNOLOGY, priority 2008, published 2010)

Tests used:
Format in all cases: biochemical
Details in all cases: BQC 10 μM, λex 500 nm, λem 595 nm, 4 h, 37° C., pH 7.6, baseline subtracted
DT Diaphorase [1] = target: T1, DT Diaphorase (Homo sapiens, UniProt P15559); assay: Oxygen-insensitive DTD-coupling enzyme assay for 3-hydroxybutyrate determination (3-hydroxybutyrate dehydrogenase, NAD+, DT Diaphorase)
Protocol: (§1) All the fluorimetric measurements carried out with an excitation wavelength of λex=500 nm and an emission wavelength of λem=595 nm. The solutions containing BQC (10 μM), DTD (1 unit), and the corresponding dehydrogenase (1 to 10 unit), NAD^+ (10 μM), and ethanol, 3-hydroxybutrate or glucose-6-phosphate (0 to 10 μM) in Tris-HCl buffer with a final volume of 1 mL were incubated for 4 h at 37° C. The fluorimetric intensity of each solution after subtracting the baseline intensity ([analytes]=0) was plotted versus the analytes concentration.
All different 3-hydroxybutyrate concentration analytes are tabulated in the table below, and the environment of assay is maintained in pH 7.6 at 37° C.

DT Diaphorase [2] = target: T1, DT Diaphorase; assay: Oxygen-insensitive DTD-coupling enzyme assay for ethanol determination (alcohol dehydrogenase, NAD+, DT Diaphorase)
Protocol: as §1
All different ethanol concentration analytes are tabulated in the table below, and the environment of assay is maintained in pH 7.6 at 37° C.

DT Diaphorase [3] = target: T1, DT Diaphorase; assay: Oxygen-insensitive DTD-coupling enzyme assay for glucose-6-phosphate determination (glucose-6-phosphate dehydrogenase, phosphoglucomutase, NAD+, DT Diaphorase)
Protocol: as §1
All different glucose-6-phophate concentration analytes are tabulated in the table below, and the environment of assay is maintained in pH 7.6 at 37° C.

T1 sequence (P15559 whole entry, species assumed): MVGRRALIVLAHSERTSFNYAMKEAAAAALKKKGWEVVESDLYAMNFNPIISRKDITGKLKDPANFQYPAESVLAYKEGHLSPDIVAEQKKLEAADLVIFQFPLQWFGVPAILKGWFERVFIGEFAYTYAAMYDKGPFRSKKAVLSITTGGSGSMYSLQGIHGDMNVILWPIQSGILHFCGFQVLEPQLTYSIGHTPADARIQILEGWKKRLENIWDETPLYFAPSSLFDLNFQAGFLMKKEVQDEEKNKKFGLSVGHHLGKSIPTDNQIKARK

CC1=C(C)C(=O)C(C(C)(C)CC(=O)N(C)CCN(C)C(=O)Oc2ccc3c(C#N)c(-c4nc5ccccc5s4)c(=O)oc3c2)=C(C)C1=O [BQC]
relative fluorescence intensity (DT Diaphorase [1]; 3-hydroxybutyrate 1 μM): 16.17 | relative fluorescence intensity (DT Diaphorase [1]; 3-hydroxybutyrate 2 μM): 47.59 | relative fluorescence intensity (DT Diaphorase [1]; 3-hydroxybutyrate 4 μM): 83.74 | relative fluorescence intensity (DT Diaphorase [1]; 3-hydroxybutyrate 6 μM): 126.26 | relative fluorescence intensity (DT Diaphorase [1]; 3-hydroxybutyrate 8 μM): 144.93 | relative fluorescence intensity (DT Diaphorase [1]; 3-hydroxybutyrate 10 μM): 198.56 | relative fluorescence intensity (DT Diaphorase [2]; ethanol 0.2 μM): 10.79 | relative fluorescence intensity (DT Diaphorase [2]; ethanol 0.6 μM): 26.18 | relative fluorescence intensity (DT Diaphorase [2]; ethanol 0.8 μM): 35.23 | relative fluorescence intensity (DT Diaphorase [2]; ethanol 1 μM): 39.42 | relative fluorescence intensity (DT Diaphorase [2]; ethanol 2 μM): 77.06 | relative fluorescence intensity (DT Diaphorase [3]; glucose-6-phosphate 1 μM): 17.02 | relative fluorescence intensity (DT Diaphorase [3]; glucose-6-phosphate 2 μM): 36.84 | relative fluorescence intensity (DT Diaphorase [3]; glucose-6-phosphate 4 μM): 76.41 | relative fluorescence intensity (DT Diaphorase [3]; glucose-6-phosphate 6 μM): 144.45 | relative fluorescence intensity (DT Diaphorase [3]; glucose-6-phosphate 8 μM): 175.2 | relative fluorescence intensity (DT Diaphorase [3]; glucose-6-phosphate 9 μM): 190.32 | relative fluorescence intensity (DT Diaphorase [3]; glucose-6-phosphate 10 μM): 207.94
